# According to article PMC8551653, “Bisphenol A derivatives act as novel coactivator-binding inhibitors for estrogen receptor β” (The Journal of Biological Chemistry, 2021):
# Assays:
# ERα = system: ERα; design: method as in PMID 31289329; conditions: competitive binding, [3H] 17β-estradiol as radioligand; mean ± SD; read-out: Binding affinity (IC50, nM) ERα; cited from earlier work
# ERβ [1] = target: T1, ERβ (Homo sapiens, UniProt Q92731); assay: Luciferase reporter gene assay in HeLa cells, agonistic activity; assay type: cell-based; design: expressed in transfected cells; host or cells: HeLa; conditions: for maximum fold induction (agonistic activity on ERβ) / ERβ agonist activity (in words): HeLa cells; for maximum fold induction (agonistic activity on ERβ): ERE luciferase reporter, tested up to 10 µM; for ERβ agonist activity (in words): WT ERβ
# Protocol: (§1) HeLa cells were maintained in Eagle's minimum essential medium (Nissui Pharmaceutical Co, Ltd) supplemented with DCC-treated fetal bovine serum (10%, v/v) at 37 °C under 5% CO2. […] After a 24-h incubation, luciferase activity was measured using the ONE-Glo Luciferase Assay System (Promega Co) on an EnSpire multimode plate reader (PerkinElmer, Inc).
# Target sequence in this assay (Q92731 whole entry): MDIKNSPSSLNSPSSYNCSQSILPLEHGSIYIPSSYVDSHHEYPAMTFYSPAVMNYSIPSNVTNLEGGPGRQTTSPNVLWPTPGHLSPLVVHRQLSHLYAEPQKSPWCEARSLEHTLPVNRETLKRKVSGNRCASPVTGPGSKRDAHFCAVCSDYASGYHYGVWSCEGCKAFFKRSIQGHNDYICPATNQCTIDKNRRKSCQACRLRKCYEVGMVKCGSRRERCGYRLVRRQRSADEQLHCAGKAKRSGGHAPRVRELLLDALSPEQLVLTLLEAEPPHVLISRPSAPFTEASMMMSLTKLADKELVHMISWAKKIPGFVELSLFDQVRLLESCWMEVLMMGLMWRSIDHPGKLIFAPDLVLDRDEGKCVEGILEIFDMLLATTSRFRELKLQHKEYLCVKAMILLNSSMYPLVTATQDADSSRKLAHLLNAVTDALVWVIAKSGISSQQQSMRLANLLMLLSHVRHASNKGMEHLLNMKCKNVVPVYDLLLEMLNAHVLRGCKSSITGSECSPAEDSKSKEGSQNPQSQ
# ERβ [2] = target: T1, ERβ; assay: Luciferase reporter gene assay in HeLa cells, antagonistic activity against 10 nM E2; assay type: cell-based; design: expressed in transfected cells; host or cells: HeLa; conditions: for transcriptional activity (%) at most effective inhibitory concentration, ratio to that of 10 nM E2: HeLa cells, in the presence of 10 nM E2, 0.1, 1, 10 µM tested; for ERβ antagonist activity (in words): against 10 nM E2-induced ERβ activation, 100 nM, 1 μM, 10 μM; for suppression of E2-induced activation: at the 10 μM concentration, 10 nM E2
# Protocol: as §1
# Target sequence in this assay (Q92731 whole entry): as above
# ERβ [3] = target: T1, ERβ; assay: Radioligand competitive binding assay with [3H]E2 for ERβ (GST-ERβ-LBD); design: made in house; host or cells: Escherichia coli BL21α; conditions: for preference of binding ERβ over ERα: ERβ versus ERα IC50
# Protocol: Human ERβ cDNA was obtained from OriGene Technologies. The cDNA of ERβ-LBD was amplified using PCR and subcloned into a pGEX-6p-1 expression vector. The expression of GST-fused ERβ-LBD was induced by 1 mM IPTG in Escherichia coli BL21α at 16 °C for overnight. The resulting crude protein was affinity-purified using Glutathione-Sepharose 4B (Cytiva), followed by gel filtration using a Sephadex G-10 column (Cytiva).
# Target sequence in this assay (Q92731 263-530): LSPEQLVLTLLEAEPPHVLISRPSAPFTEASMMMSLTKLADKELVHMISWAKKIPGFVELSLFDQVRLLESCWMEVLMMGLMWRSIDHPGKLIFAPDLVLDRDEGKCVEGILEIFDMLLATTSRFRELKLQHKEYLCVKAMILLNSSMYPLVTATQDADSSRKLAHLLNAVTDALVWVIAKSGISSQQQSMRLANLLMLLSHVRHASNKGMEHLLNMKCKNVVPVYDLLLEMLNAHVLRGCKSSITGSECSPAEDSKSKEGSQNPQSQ
# ERβ [4] = target: T1, ERβ; assay: Competitive binding assay with [3H]4OHT for WT ERβ; design: made in house; host or cells: Escherichia coli BL21α
# Protocol: (§2) After successive incubation with 100 μl of 0.4% dextran-coated charcoal (DCC) (Sigma-Aldrich) in PBS (pH 7.4) on ice for 10 min, free radioligands bound to DCC were removed using a vacuum filtration system with a 96-well filtration plate (MultiScreenHTS HV, […], Merck KGaA) for the bound/free separation. The radioactivity of each eluent was measured using a liquid scintillation counter (LS6500; Beckman Coulter) and Clear-sol I (Nacalai Tesque Inc). […] Each compound was dissolved in dimethyl sulfoxide to prepare a 1.0 mM stock solution and further diluted to prepare serial dilutions (10^−12 M to 10^−5 M) in the binding buffer. […] Bound/free separation was performed as described above, and the radioactivity was determined using a MicroBeta microplate counter (PerkinElmer Inc). The IC50 value of each test compound was calculated from the dose–response curves generated via nonlinear regression analysis using Prism software (GraphPad Software Inc).
# Target sequence in this assay (Q92731 263-530): as above
# ERβ(W335A) = ERβ(W335A) (Homo sapiens, UniProt Q92731, W335A); assay: Competitive binding assay for ERβ(W335A); design: made in house; host or cells: Escherichia coli BL21α (described for the wild-type LBD); conditions: for shape of competitive binding curve, ERβ(W335A): Fig. 4B
# Protocol: as §2
# [5] = competitive binding, [3H] 17β-estradiol as radioligand, mean ± SD, read-out: Binding affinity (IC50, nM) ERβ
# Sequence of ERβ(W335A) (Q92731 263-530 W335A): as the sequence (Q92731 263-530) above, with W73A counted along it
Compound,IC50 (ERα) [nM],maximum fold induction (agonistic activity on ERβ) (ERβ [1]),ERβ agonist activity (in words) (ERβ [1]),"transcriptional activity (%) at most effective inhibitory concentration, ratio to that of 10 nM E2 (ERβ [2]) [%]",ERβ antagonist activity (in words) (ERβ [2]),IC50 (ERβ [3]) [nM],also measured
"CC(C)(c1ccc(O)cc1)c1ccc(C(C)(C)c2ccc(O)cc2)cc1 [Compound 16, 4,4'-(1,4-phenylenebis(propane-2,2-diyl))diphenol]",176 ± 35,1.44,no agonist activity,11.8,antagonistic activity,607 ± 28,
"C[C@]12CC[C@@H]3c4ccc(O)cc4CC[C@H]3[C@@H]1CC[C@@H]2O [Compound E2, Estradiol, reference compound]",0.88 ± 0.13,,,,,,
"Oc1ccc(C(c2ccc(O)cc2)(C(F)(F)F)C(F)(F)F)cc1 [Compound 4, 4,4'-(perfluoropropane-2,2-diyl)diphenol]",,,weak transcriptional activity,,antagonistic activities,,"preference of binding ERβ over ERα (ERβ [3]): three times stronger binding to ERβ than ERα; shape of competitive binding curve, WT ERβ (ERβ [4]; [3H]4OHT radioligand): biphasic binding curve; increase of ERβ binding compared with BPA (ERβ [4]; compared with BPA): ~50 fold; shape of competitive binding curve, ERβ(W335A) (ERβ(W335A)): biphasic binding of BPC and BPAF was lost"
"Cc1cc(C2(c3ccc(O)c(C)c3)c3ccccc3-c3ccccc32)ccc1O [Compound 15, 9,9-Bis(4-hydroxy-3-methylphenyl)fluorene]",,,,,weak antagonist,405 ± 108,
"Oc1ccc(C(c2ccc(O)cc2)C(Cl)(Cl)Cl)cc1 [Compound 3, 2,2-bis(p-hydroxyphenyl)-1,1,1-trichloroethane]",,,,,antagonistic activities,,preference of binding ERβ over ERα (ERβ [3]): three times stronger binding to ERβ than ERα
"Oc1ccc(C2(c3ccc(O)cc3)c3ccccc3-c3ccccc32)cc1 [Compound 14, 9,9-Bis(4-hydroxyphenyl)fluorene]",2230 ± 202,2.47,,76.9,,325 ± 60,
"CCC(C)(c1ccc(O)cc1)c1ccc(O)cc1 [Compound 8, 4,4'-(butane-2,2-diyl)diphenol]",195 ± 44,5.13,,28.9,weak antagonist activity,79.8 ± 12.6,transcriptional activity as % of BPA-induced transcriptional activity (ERβ [1]; at the highest concentration of 10 μM): ~50%; inhibition of BPA-induced activation (ERβ [2]; as worded): 50%
"CCCCC(CC)C(c1ccc(O)cc1)c1ccc(O)cc1 (stereo not drawn) [Compound 6, 4,4′-(2-Ethylhexylidene)bisphenol]",18.5 ± 6.7,1.59,no agonist activity,11.1,,,suppression of E2-induced activation (ERβ [2]): 90%; IC50 (ERβ [3]; [5]): 25.9 ± 8.5 nM
"CC/C(=C(\c1ccc(O)cc1)c1ccc(OCCN(C)C)cc1)c1ccccc1 [Compound 4OHT, 4-Hydroxytamoxifen, reference compound]",[…],,,,,,"shape of competitive binding curve, WT ERβ (ERβ [4]; [3H]4OHT radioligand): biphasic curve"
"Nc1cc(C(c2ccc(O)c(N)c2)(C(F)(F)F)C(F)(F)F)ccc1O [Compound 13, 2,2-Bis(3-amino-4-hydroxyphenyl)hexafluoropropane]",334 ± 112,1.67,,86.7,,,IC50 (ERβ [3]; [5]): 224 ± 113 nM
"Nc1ccc(Oc2ccc(C(c3ccc(Oc4ccc(N)cc4)cc3)(C(F)(F)F)C(F)(F)F)cc2)cc1 [Compound 17, 2,2-Bis[4-(4-aminophenoxy)phenyl]hexafluoropropane]",1030 ± 375,1.46,,99.1,,609 ± 81,
"CC(c1ccccc1)(c1ccc(O)cc1)c1ccc(O)cc1 [Compound 11, 4,4'-(1-phenylethane-1,1-diyl)diphenol]",259 ± 41,,,,,,
"Oc1ccc(C(=C(Cl)Cl)c2ccc(O)cc2)cc1 [Compound 1, 4,4'-(2,2-dichloroethene-1,1-diyl)diphenol]",2.81 ± 0.61,2.39,weak transcriptional activity,6.0,strongest antagonistic activity,2.99 ± 1,"IC50 (ERβ [4]): 18.1 nM; shape of competitive binding curve, WT ERβ (ERβ [4]; [3H]4OHT radioligand): biphasic dose–response curve; IC50 (ERβ [4]; read-out: IC50, biphasic curve, low-affinity site, [3H]4OHT radioligand, WT ERβ): 2280 nM; IC50 (ERβ(W335A)): 691 ± 29 nM; shape of competitive binding curve, ERβ(W335A) (ERβ(W335A)): biphasic binding of BPC and BPAF was lost"
"CC(C)(c1ccc(O)cc1)c1cccc(C(C)(C)c2ccc(O)cc2)c1 [Compound 10, 4,4'-(1,3-phenylenebis(propane-2,2-diyl))diphenol]",56.8 ± 11.7,1.12,no agonist activity,5.4,antagonistic activity,148 ± 80,
"CC(C)(c1ccc(O)cc1)c1ccc(C(C)(c2ccc(O)cc2)c2ccc(O)cc2)cc1 [Compound 12, α, α, α′-Tris(4-hydroxyphenyl)-1-ethyl-4-isopropylbenzene]",61.7 ± 10.4,1.02,no agonist activity,7.7,antagonistic activity,212 ± 36,
"Oc1ccc(C2(c3ccc(O)cc3)CCCCC2)cc1 [Compound 5, 4,4'-(cyclohexane-1,1-diyl)diphenol]",,3.29,,19.9,,21.6 ± 1.9,
"Cc1cc(C(C)(C)c2ccc(C(C)(C)c3cc(C)c(O)c(C)c3)cc2)cc(C)c1O [Compound 20, α,α′-Bis(4-hydroxy-3,5-dimethylphenyl)-1,4-diisopropylbenzene]",733 ± 628,0.99,no agonist activity,6.4,antagonistic activity,,IC50 (ERβ [3]; [5]): > 10000 nM
"Cc1cc(C(c2ccccc2O)c2cc(C)c(O)c(C)c2C)c(C)c(C)c1O [Compound 7, 4,4′-(2-Hydroxybenzylidene)-bis(2,3,6-trimethylphenol)]",12.3 ± 7.3,1.45,no agonist activity,6.6,,,suppression of E2-induced activation (ERβ [2]): 90%; IC50 (ERβ [3]; [5]): 41.5 ± 2 nM
"Cc1cc(C2(c3ccc(O)c(C)c3)CCCCC2)ccc1O [Compound 9, 1,1-Bis(4-hydroxy-3-methylphenyl)cyclohexane]",38.6 ± 7.2,2.27,,17.0,,,IC50 (ERβ [3]; [5]): 132 ± 6.5 nM
